In patent EP4428121A1, “MODULATORS OF SORTILIN ACTIVITY” (Vesper Bio Aps, priority 2023, dated 2024):

Target: T1, Human (6-His)Sortilin (Homo sapiens, UniProt Q99523)
T1 construct: purchased RnD Systems
T1 sequence (Q99523 78-755 limits assumed): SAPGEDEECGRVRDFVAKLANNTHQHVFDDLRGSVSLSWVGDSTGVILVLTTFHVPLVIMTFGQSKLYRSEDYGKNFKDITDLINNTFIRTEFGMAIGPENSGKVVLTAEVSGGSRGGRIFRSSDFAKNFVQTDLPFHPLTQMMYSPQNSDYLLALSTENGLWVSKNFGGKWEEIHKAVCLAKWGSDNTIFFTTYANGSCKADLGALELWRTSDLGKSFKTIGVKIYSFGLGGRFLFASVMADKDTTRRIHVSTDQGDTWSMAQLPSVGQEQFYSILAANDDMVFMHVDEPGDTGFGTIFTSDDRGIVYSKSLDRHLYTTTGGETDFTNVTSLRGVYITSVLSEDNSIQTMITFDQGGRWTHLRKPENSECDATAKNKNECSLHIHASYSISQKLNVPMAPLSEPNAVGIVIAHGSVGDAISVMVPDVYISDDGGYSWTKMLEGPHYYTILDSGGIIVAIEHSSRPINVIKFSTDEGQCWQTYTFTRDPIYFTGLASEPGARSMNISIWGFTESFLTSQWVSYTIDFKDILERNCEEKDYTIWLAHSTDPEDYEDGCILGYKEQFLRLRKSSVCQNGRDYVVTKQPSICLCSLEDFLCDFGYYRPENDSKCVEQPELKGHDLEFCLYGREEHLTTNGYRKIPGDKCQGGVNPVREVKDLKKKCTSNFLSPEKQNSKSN
Experiment: Human Sortilin GCI (Grating-Coupled Interferometry) binding assay
Conditions: Creoptix WAVE-RAPID, single concentration (usually 1 µM, 10 µM or 100 µM), immobilised Human (6-His)Sortilin, 1:1 kinetic binding model

Kd | Molecule
1.83 µM | CC(C)(C)CCC(Nc1ccc2ccccc2n1)c1nn[nH]n1 (racemic) [Example 34, [4,4-dimethyl-1-(2H-tetraazol-5-yl)pentyl]-2-quinolylamine]
1.07 µM | CC(C)(C)CCC(Nc1cccc2ccccc12)c1nn[nH]n1 (racemic) [Example 35, [4,4-dimethyl-1-(2H-tetraazol-5-yl)pentyl]-1-naphthylamine]
8.75 µM | CC(C)CCC(Nc1cccc2ccccc12)c1nn[nH]n1 (racemic) [Example 38, [4-methyl-1-(2H-tetraazol-5-yl)pentyl]-1-naphthylamine]
22 µM | CC(C)CC(Nc1ccc2ccccc2n1)c1nn[nH]n1 (racemic) [Example 40, [3-methyl-1-(2H-tetraazol-5-yl)butyl]-2-quinolylamine]
3.17 µM | CC(C)CC(Nc1cc2ccccc2cn1)c1nn[nH]n1 (racemic) [Example 42, [3-methyl-1-(2H-tetraazol-5-yl)butyl]-3-isoquinolylamine]
17.7 µM | CC(C)(C)CC(Nc1ccccc1)c1nn[nH]n1 (racemic) [Example 43, N-phenyl[3,3-dimethyl-1-(2H-tetraazol-5-yl)butyl]amine]
91.1 µM | CC(C)(C)CC(Nc1ncccn1)c1nn[nH]n1 (racemic) [Example 45, N-2-pyrimidinyl[3,3-dimethyl-1-(2H-tetraazol-5-yl)butyl]amine]
3.78 µM | CC(C)CC(Nc1cncc2ccccc12)c1nn[nH]n1 (racemic) [Example 46, [3-methyl-1-(2H-tetraazol-5-yl)butyl]-4-isoquinolylamine]
7.82 µM | CC(C)(C)CCC(Nc1ncccn1)c1nn[nH]n1 (racemic) [Example 47, N-2-pyrimidinyl[4,4-dimethyl-1-(2H-tetraazol-5-yl)pentyl]amine]
2.47 µM | CC(C)(C)CC(Nc1cncc2ccccc12)c1nn[nH]n1 (racemic) [Example 48, [3,3-dimethyl-1-(2H-tetraazol-5-yl)butyl]-4-isoquinolylamine]
98 µM | CC(C)CC(Nc1cncnc1)c1nn[nH]n1 (racemic) [Example 49, [3-methyl-1-(2H-tetraazol-5-yl)butyl]-5-pyrimidinylamine]
28 µM | CC(C)(C)CC(Nc1cncnc1)c1nn[nH]n1 (racemic) [Example 50, N-5-pyrimidinyl[3,3-dimethyl-1-(2H-tetraazol-5-yl)butyl]amine]
3.25 µM | Cn1ccc2cc(NC(CC(C)(C)C)c3nn[nH]n3)cnc21 (racemic) [Example 52, [3,3-dimethyl-1-(2H-tetraazol-5-yl)butyl](1-methyl-1H-1,7-diazainden-5-yl)amine]
0.735 µM | Cn1ccc2cc(NC(CCC(C)(C)C)c3nn[nH]n3)cnc21 (racemic) [Example 53, [4,4-dimethyl-1-(2H-tetraazol-5-yl)pentyl](1-methyl-1H-1,7-diazainden-5-yl)amine]
10.5 µM | CC(C)CCC(Nc1cnc2ccccc2c1)c1nn[nH]n1 (racemic) [Example 55, [4-methyl-1-(2H-tetraazol-5-yl)pentyl]-3-quinolylamine]
44.9 µM | CC(C)CC(Nc1cnc2ccccc2c1)c1nn[nH]n1 (racemic) [Example 56, [3-methyl-1-(2H-tetraazol-5-yl)butyl]-3-quinolylamine]
123 µM | CC(C)CCC(Nc1ncccn1)c1nn[nH]n1 (racemic) [Example 57, N-2-pyrimidinyl[4-methyl-1-(2H-tetraazol-5-yl)pentyl]amine]
5.9 µM | CC(C)(C)CC(Nc1cc2ccccc2cn1)c1nn[nH]n1 (racemic) [Example 60, [3,3-dimethyl-1-(2H-tetraazol-5-yl)butyl]-3-isoquinolylamine]
8.71 µM | CC(C)CCC(Nc1cncc2ccccc12)c1nn[nH]n1 (racemic) [Example 64, [4-methyl-1-(2H-tetraazol-5-yl)pentyl]-4-isoquinolylamine]
98.6 µM | CC(C)CC(Nc1ncccn1)c1nn[nH]n1 (racemic) [Example 65, [3-methyl-1-(2H-tetraazol-5-yl)butyl]-2-pyrimidinylamine]

Kd | Molecule
5.41 µM | CC(C)(C)CC(Nc1ncnc2ccccc12)c1nn[nH]n1 (racemic) [Example 77, [3,3-dimethyl-1-(2H-tetraazol-5-yl)butyl]-4-quinazolinylamine]
1.49 µM | COc1ccc2ncnc(NC(CCC(C)(C)C)c3nn[nH]n3)c2c1 (racemic) [Example 78, [4,4-dimethyl-1-(2H-tetraazol-5-yl)pentyl](6-methoxy-4-quinazolinyl)amine]
19.5 µM | COc1ccc2ncnc(NC(CCC(C)C)c3nn[nH]n3)c2c1 (racemic) [Example 79, [4-methyl-1-(2H-tetraazol-5-yl)pentyl](6-methoxy-4-quinazolinyl)amine]
3.88 µM | Cc1ccc2ncnc(NC(CCC(C)C)c3nn[nH]n3)c2c1 (racemic) [Example 80, [4-methyl-1-(2H-tetraazol-5-yl)pentyl](6-methyl-4-quinazolinyl)amine]
2.22 µM | CC(C)CCC(Nc1ncnc2ccc(F)cc12)c1nn[nH]n1 (racemic) [Example 81, [4-methyl-1-(2H-tetraazol-5-yl)pentyl](6-fluoro-4-quinazolinyl)amine]
0.316 µM | CC(C)(C)CCC(Nc1ncnc2cc(F)ccc12)c1nn[nH]n1 (racemic) [Example 82, [4,4-dimethyl-1-(2H-tetraazol-5-yl)pentyl](7-fluoro-4-quinazolinyl)amine]
0.251 µM | Cc1ccc2ncnc(NC(CCC(C)(C)C)c3nn[nH]n3)c2c1 (racemic) [Example 83, [4,4-dimethyl-1-(2H-tetraazol-5-yl)pentyl](6-methyl-4-quinazolinyl)amine]
0.461 µM | Cc1ccc2c(NC(CCC(C)(C)C)c3nn[nH]n3)ncnc2c1 (racemic) [Example 84, [4,4-dimethyl-1-(2H-tetraazol-5-yl)pentyl](7-methyl-4-quinazolinyl)amine]
1.49 µM | CC(C)(C)CCC(Nc1ncnc2ccc(C(F)(F)F)cc12)c1nn[nH]n1 (racemic) [Example 86, [4,4-dimethyl-1-(2H-tetraazol-5-yl)pentyl][6-(trifluoromethyl)-4-quinazolinyl]amine]
0.426 µM | CC(C)(C)CCC(Nc1ncnc2cnccc12)c1nn[nH]n1 (racemic) [Example 88, [4,4-dimethyl-1-(2H-tetraazol-5-yl)pentyl]-1,3,7-triaza-4-naphthylamine]
0.284 µM | CC(C)(C)CCC(Nc1ncnc2cc(Br)ccc12)c1nn[nH]n1 (racemic) [Example 90, [4,4-dimethyl-1-(2H-tetraazol-5-yl)pentyl](7-bromo-4-quinazolinyl)amine]
18.3 µM | CC(C)CCC(Nc1ncnc2ccccc12)c1nnn[nH]1 (racemic) [Example 101, N-(4-methyl-1-(1H-tetrazol-5-yl)pentyl)quinazolin-4-amine]
25.5 µM | CC(C)CC(Nc1ncnc2ccccc12)c1nn[nH]n1 (racemic) [Example 103, [3-methyl-1-(2H-tetraazol-5-yl)butyl]-4-quinazolinylamine]
74.2 µM | CC(C)CC(Nc1ccncc1)c1nnn[nH]1 (racemic) [Example 104, N-(3-methyl-1-(1H-tetrazol-5-yl)butyl)pyridin-4-amine]
187 µM | CC(C)CC(Nc1ccncn1)c1nn[nH]n1 (racemic) [Example 105, [3-methyl-1-(2H-tetraazol-5-yl)butyl]-4-pyrimidinylamine]
6.07 µM | CC(C)(C)CC[C@@H](Nc1ccc2ccccc2n1)c1nn[nH]n1 (single isomer, unassigned) [Example 95]
0.912 µM | CC(C)(C)CC[C@H](Nc1ccc2ccccc2n1)c1nn[nH]n1 (single isomer, unassigned) [Example 96]
1.56 µM | CC(C)(C)CC[C@H](Nc1cccnc1)c1nn[nH]n1 (single isomer, unassigned) [Example 99]
6.22 µM | CC(C)(C)CC[C@@H](Nc1cccnc1)c1nn[nH]n1 (single isomer, unassigned) [Example 100]
2.84 µM | N-phenyl[4,4-dimethyl-1-(2H-tetraazol-5-yl)pentyl]amine [Example 39]

Molecule | Kd
CC(C)(C)CCC(Nc1cnc2ccccc2c1)c1nn[nH]n1 (racemic) [Example 33, [4,4-dimethyl-1-(2H-tetraazol-5-yl)pentyl]-3-quinolylamine] | 3.43 µM
CC(C)(C)CC(Nc1ccccn1)c1nn[nH]n1 (racemic) [Example 61, N-2-pyridyl[3,3-dimethyl-1-(2H-tetraazol-5-yl)butyl]amine] | 60 µM
CC(C)(C)CC(Nc1cccnc1)c1nn[nH]n1 (racemic) [Example 62, N-3-pyridyl[3,3-dimethyl-1-(2H-tetraazol-5-yl)butyl]amine] | 32.1 µM
CC(C)CC(Nc1ccccn1)c1nn[nH]n1 (racemic) [Example 66, [3-methyl-1-(2H-tetraazol-5-yl)butyl]-2-pyridylamine] | 179 µM
CC(C)(C)CC[C@H](Nc1cncc2ccccc12)C(=O)O [Example 29, (S)-2-(isoquinolin-4-ylamino)-5,5-dimethylhexanoic acid] | 0.0578 µM
